Laboratory results as given in patent EP0770601A1, “PROPENONE DERIVATIVES” (Kyowa Hakko Kogyo Co., Ltd., priority 1995, dated 1996).

What was measured:
HeLa S3 cells = experiment: HeLa S3 cell growth inhibition test (neutral red staining); assay type: cell-based; conditions: Homo sapiens, 72 hours culture with test compound, neutral red absorbance at 550 nm
Description: Test Example 1: HeLa S3 Cell Growth Inhibition Test
Each 0.1 ml of HeLa S3 cells which had been prepared to 3 x 10^4 cells/ml using a medium consisted of MEM medium, 10% fetal bovine serum and 2 mM glutamine was distributed in each well of 96 well-microtiter plate. HeLa S3 was cultured at 37°C in a CO2 incubator for one night, each 0.05 ml of test compounds which had been appropriately diluted with the culture solution was added thereto and the mixture was cultured at 37°C for 72 hours in a CO2 incubator. Supernatant was removed, each 0.1 ml of the culture solution containing 0.02% neutral red was added to the residue, the mixture was incubated at 37°C for one hour in a CO2 incubator and the cells were stained. Supernatant was removed and the residue was washed once with physiological saline. Then, the pigment was extracted with 0.001 N hydrochloric acid/30% ethanol and the absorbance at 550 nm was measured by a microplatereader. A concentration of the test compound (IC50) at which the growth of cell is inhibited by 50% was calculated by comparing the absorbance of non-treated cells and that of cells treated with a predetermined concentration of the test compound.

P388 mouse leukemia = experiment: Effect upon P388 ascites tumor (increased life span); assay type: in vivo; conditions: consecutive 5 days from 24 hours after implantation of the tumor, male CDF1 mice
Description: Test Example 2: Effect upon P388 Ascites Tumor […] The resultant suspension was administered once 24 hours after implantation of the tumor, or repeatedly for consecutive 5 days from 24 hours after implantation of the tumor. The average survival day (T) in a group was calculated from the survival days of the respective mice in the group administered with the test compound at each dose. On the other hand, the average survival day (C) of a group which was not administered was measured, and the increased life span [ILS (%)] was calculated according to the following equation: [(T - C)/C] x 100 (%) [formula]

CCOc1cc(C(=O)C(C)=Cc2c[nH]c3ccccc23)cc(OCC)c1OCC [Compound 4, 3-(Indol-3-yl)-2-methyl-1-(3,4,5-triethoxyphenyl)-2-propen-1-one]
IC50 (HeLa S3 cells): 22 nM

CCOc1c(OC)cc(C(=O)C(C)=Cc2c[nH]c3ccccc23)cc1OC [Compound 5, 1-(4-Ethoxy-3,5-dimethoxyphenyl)-3-(indol-3-yl)-2-methyl-2-propen-1-one]
ILS (%) [Dose (mg/kg)] five consec. admin. (P388 mouse leukemia; dose 3.1 mg/kg): 41 ( 3.1) %
IC50 (HeLa S3 cells): 2.5 nM

COc1cc(C(=O)C(C)=Cc2c[nH]c3ccccc23)cc(OC)c1OCC(C)C [Compound 6, 3-(Indol-3-yl)-1-(4-isobutyloxy-3,5-dimethoxyphenyl)-2-methyl-2-propen-1-one]
ILS (%) [Dose (mg/kg)] five consec. admin. (P388 mouse leukemia; dose 3.1 mg/kg): 43 ( 3.1) %
IC50 (HeLa S3 cells): 9.4 nM

CCc1c(OC)cc(C(=O)C(C)=Cc2c[nH]c3ccccc23)cc1OC [Compound 7, 1-(4-Ethyl-3-dimethoxyphenyl)-3-(indol-3-yl)-2-methyl-2-propen-1-one]
ILS (%) [Dose (mg/kg)] five consec. admin. (P388 mouse leukemia; dose 25 mg/kg): 40 ( 25) %
IC50 (HeLa S3 cells): 64 nM

COc1cc(C(=O)C(C)=Cc2c[nH]c3ccccc23)cc2c1OCO2 [Compound 8, 3-(Indol-3-yl)-1-(3-methoxy-4,5-methylenedioxyphenyl)-2-methyl-2-propen-1-one]
ILS (%) [Dose (mg/kg)] five consec. admin. (P388 mouse leukemia; dose 6.3 mg/kg): 50 ( 6.3) %
IC50 (HeLa S3 cells): 6.1 nM

CCOc1cc(C(=O)C(C)=Cc2c[nH]c3ccccc23)cc(OC)c1OC [Compound 9, 1-(5-Ethoxy-3,4-dimethoxyphenyl)-3-(indol-3-yl)-2-methyl-2-propen-1-one]
IC50 (HeLa S3 cells): 3.2 nM

COc1cc(C(=O)C(C)=Cc2c[nH]c3ccccc23)cc(Br)c1OC [Compound 10, 1-(3-Bromo-4-dimethoxyphenyl)-3-(indol-3-yl)-2-methyl-2-propen-1-one]
IC50 (HeLa S3 cells): 6.6 nM

CCOc1c(OC)cc(C(=O)C(C)=Cc2c[nH]c3cc(C)ccc23)cc1OC [Compound 11, 1-(4-Ethoxy-3,5-dimethoxyphenyl)-2-methyl-3-(6-methylindol-3-yl)-2-propen-1-one]
IC50 (HeLa S3 cells): 6.7 nM

COc1cc(C(=O)C(C)=Cc2c[nH]c3cc(C)ccc23)cc2c1OCO2 [Compound 12, 1-(3-Methoxy-4,5-methylenedioxyphenyl)-2-methyl-3-(6-methylindol-3-yl)-2-propen-1-one]
IC50 (HeLa S3 cells): 2.3 nM

COc1cc(C(=O)C(C)=Cc2c[nH]c3cc(C)ccc23)cc(OC)c1OCC(C)C [Compound 15, 1-(4-Isobutyloxy-3,5-dimethoxyphenyl)-2-methyl-3-(6-methylindol-3-yl)-2-methyl-2-propen-1-one]
IC50 (HeLa S3 cells): 18 nM

CCOc1c(OC)cc(C(=O)C(C)=Cc2c[nH]c3cc(CC)ccc23)cc1OC [Compound 16, 1-(4-Ethoxy-3,5-dimethoxyphenyl)-3-(6-ethylindol-3-yl)-2-methyl-2-propen-1-one]
IC50 (HeLa S3 cells): 6.2 nM

CCOc1c(OC)cc(C(=O)C(C)=Cc2c[nH]c3cc(Cl)ccc23)cc1OC [Compound 18, 3-(6-Chloroindol-3-yl)-1-(4-ethoxy-3,5-dimethoxyphenyl)-2-methyl-2-propen-1-one]
IC50 (HeLa S3 cells): 6.3 nM

CCCOc1c(OC)cc(C(=O)C(C)=Cc2c[nH]c3cc(C)ccc23)cc1OC [Compound 19, 1-(3,5-Dimethoxy-4-propoxyphenyl)-2-methyl-3-(6-methylindol-3-yl)-2-propen-1-one]
IC50 (HeLa S3 cells): 5.2 nM

CCCCOc1c(OC)cc(C(=O)C(C)=Cc2c[nH]c3cc(C)ccc23)cc1OC [Compound 20, 1-(4-Buthoxy-3,5-dimethoxyphenyl)-2-methyl-3-(6-methylindol-3-yl)-2-propen-1-one]
IC50 (HeLa S3 cells): 6.1 nM

COc1ccc(C(=O)C(C)=Cc2c[nH]c3ccccc23)c(OC)c1OC [Compound 24, 3-(Indol-3-yl)-2-methyl-1-(2,3,4-trimethoxyphenyl)-2-propen-1-one]
IC50 (HeLa S3 cells): 22 nM
